Here are results for 10 molecules from ChEMBL document CHEMBL1201862, “PubChem BioAssay data set” (2004).

Experiment in all cases: growth of human tumour cells (NCI), 48 h
For test [1], the system named is EKVX.
In test [2] the test system is HCT-116.
The test system of test [3] is HL-60.
Test [4] relates to HOP-92.
In test [5] the test system is KM12.
The subject of test [6] is LOX IMVI.
Test [7] deals with MCF7.
Test [8] concerns MDA-MB-231.
The test system of test [9] is MDA-MB-435.
In test [10] the test system is MOLT-4.
Test [11] relates to OVCAR-4.
In test [12] the test system is RXF 393.
Test [13] concerns SK-MEL-2.
Test [14] concerns SK-MEL-5.
Test [15] concerns SNB-75.
In test [16] the test system is SR.
For test [17], the system named is SW-620.
In test [18] the test system is TK-10.
Test [19] concerns UACC-257.
Test [20] has as its system OVCAR-3.

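In this assay, cells in 96-well plates receive the compound at five concentrations for 48 hours. Endpoints are linearly interpolated between the surrounding concentrations. GI50 is the concentration that inhibits growth by half.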 Active and inactive are the calls of the source. No stated cut-off is given here; in the data, active = GI50 up to about 1.1 µM and inactive = higher.

For the molecule `N#C/C(=C\c1ccccc1)c1nc(-c2cc3ccccc3oc2=O)cs1`, the GI50 in [1] was 71.3 µM (inactive); in test [2] it was > 100 µM (inactive); in [3], > 100 µM (inactive); in [4] it was 32.1 µM (inactive); in [5], 75.3 µM (inactive); in test [6], > 100 µM (inactive). Further, the GI50 is > 100 µM (inactive) in [7]; 71.3 µM (inactive) in test [8]; > 100 µM (inactive) in test [9]; > 100 µM (inactive) in test [10]; 41.5 µM (inactive) in [11]; > 100 µM (inactive) in test [12]. Also, the GI50 in [13] was > 100 µM (inactive); in [14], > 100 µM (inactive); in test [15], 39.3 µM (inactive); in test [16], > 100 µM (inactive); in test [17] it was > 100 µM (inactive); in [18], 45.2 µM (inactive). In addition, in test [19], the GI50 was > 100 µM (inactive).

On to `O=C1OC([C@H](O)c2cccnc2)c2ccccc21` (stereo not given in full), for which the GI50 in [1], in test [2], in test [3], in test [4], in test [5] and in test [6] was > 10 µM (inactive) in each case. Moreover, the GI50 in test [7], in test [8], in test [9], in [10], in test [20] and in [11] was > 10 µM (inactive) in each case. Besides, the GI50 in [12], in [13], in test [14], in test [15], in [16] and in test [17] was > 10 µM (inactive) throughout. Besides, the GI50 in [18] and in [19] was > 10 µM (inactive) in each case.

Consider `COc1ccc(CC2C3=C(CCN2C(=O)C2CCC2)CC2(CC3)OCCO2)cc1O` (stereo not given), for which the GI50 in test [1] is 38.8 µM (inactive); in test [2], 34.6 µM (inactive); in [3], 18.8 µM (inactive); in test [4] it was 62.8 µM (inactive); in [5], 31.3 µM (inactive); in [6] it was > 100 µM (inactive). Besides, the GI50 was 28.6 µM (inactive) in test [7]; 40.8 µM (inactive) in test [8]; 6.7 µM (inactive) in test [9]; 37 µM (inactive) in [10]; 18 µM (inactive) in test [20]; 41.4 µM (inactive) in [11]. Also, the GI50 is 15.7 µM (inactive) in test [12]; 49.3 µM (inactive) in [13]; 30.3 µM (inactive) in test [14]; 15 µM (inactive) in [15]; 10.5 µM (inactive) in [16]; 31.3 µM (inactive) in [17]. In addition, the GI50 in test [18] is 30.7 µM (inactive); in test [19], 30.5 µM (inactive).

Take `CC1(C)N=c2[nH]cnc2=C(C(N)=O)N1`: the GI50 in test [1], in test [2], in [3], in test [4], in test [5] and in test [6] was > 100 µM (inactive) in each case. Moreover, the GI50 in test [7], in test [8], in test [9], in test [20], in test [11] and in test [12] was > 100 µM (inactive) throughout. For the same molecule, the GI50 in [13], in test [14], in test [15], in test [16], in [17] and in [18] was > 100 µM (inactive) each time. Moreover, the GI50 in test [19] is > 100 µM (inactive).

Take `CCOC(=O)CCC(NC(=O)c1ccc(Nc2cnc3cc(C(F)(F)F)ccc3n2)cc1)C(=O)OCC` (stereo not given): the GI50 in test [1] was > 84.7 µM (inactive); in [2], 17.8 µM (inactive); in test [3], > 100 µM (inactive); in test [4], 23.9 µM (inactive); in [5], 61.9 µM (inactive); in [6], > 100 µM (inactive). The GI50 was > 31.6 µM (inactive) in test [7]; > 100 µM (inactive) in test [8]; > 100 µM (inactive) in test [9]; > 100 µM (inactive) in test [10]; > 100 µM (inactive) in [20]; 36.7 µM (inactive) in test [11]. In addition, the GI50 in test [12] is 3.55 µM (inactive); in test [13], > 100 µM (inactive); in test [14], > 100 µM (inactive); in [15], 1.9 µM (inactive); in [16], > 100 µM (inactive); in [17], > 100 µM (inactive). Moreover, the GI50 in [18] was > 87.9 µM (inactive); in test [19], > 100 µM (inactive).

As for `CCC1(O)C(=O)OCc2c1cc1n(c2=O)Cc2cc3cc4c(cc3nc2-1)OCO4` (stereo not given), the GI50 in test [1] is 0.0776 µM (active); in test [2], < 0.01 µM (active); in test [3], < 0.01 µM (active); in test [4] it was 0.0191 µM (active); in [6], < 0.01 µM (active); in test [7], < 0.01 µM (active). Moreover, the GI50 in test [8] was 0.346 µM (active); in [9], < 0.0131 µM (active); in test [10] it was < 0.01 µM (active); in test [20], 0.0466 µM (active); in test [11] it was 0.0551 µM (active); in test [12], < 0.01 µM (active). For the same molecule, the GI50 is 0.127 µM (active) in test [13]; < 0.01 µM (active) in [14]; < 0.01 µM (active) in test [15]; < 0.215 µM (active) in [16]; < 0.0115 µM (active) in [17]; 0.31 µM (active) in test [18]. For the same molecule, the GI50 in [19] is 0.0242 µM (active).

Consider `CN(C)c1ccc(C2CC(C)(O)Oc3cc4c(cc32)OCO4)cc1` (stereo not given), for which the GI50 in [1] was 48.9 µM (inactive); in test [2], 34.5 µM (inactive); in test [3] it was 46.3 µM (inactive); in test [4], 25.9 µM (inactive); in [5] it was 30 µM (inactive); in test [6], 31.6 µM (inactive). Besides, the GI50 was 38.4 µM (inactive) in [7]; 18.2 µM (inactive) in test [8]; 13.6 µM (inactive) in test [9]; > 100 µM (inactive) in [10]; 64.3 µM (inactive) in test [20]; 32.7 µM (inactive) in test [12]. The GI50 in test [13] was 22.2 µM (inactive); in test [14], 30.6 µM (inactive); in [15], 25.3 µM (inactive); in test [16], 9.33 µM (inactive); in test [17], 35.3 µM (inactive); in [18], 59.3 µM (inactive). In addition, the GI50 in test [19] is 62.4 µM (inactive).

As to `CCN(CC)CC1CCCCN1CC(=O)N1c2ccc(Br)cc2C(=O)Nc2cccnc21` (stereo not given), the GI50 in [1] is > 100 µM (inactive); in test [2] it was > 100 µM (inactive); in [3], > 100 µM (inactive); in [4], 80.4 µM (inactive); in test [5] it was > 100 µM (inactive); in test [6] it was > 100 µM (inactive). In addition, the GI50 in test [7], in test [8], in test [9], in test [10], in test [20] and in test [11] was > 100 µM (inactive) throughout. Moreover, the GI50 in test [12] was > 100 µM (inactive); in test [13], > 100 µM (inactive); in [14] it was > 100 µM (inactive); in test [15], 12.3 µM (inactive); in test [16] it was 57 µM (inactive); in test [18] it was > 100 µM (inactive). Besides, in test [19], the GI50 is 74.8 µM (inactive).

`COc1cc(/C=C2\CCC/C(=C\c3ccc(O)c(OC)c3)C2=O)ccc1O` [CYCLOVALONE]: the GI50 in [1] was 6.84 µM (inactive); in [2] it was 2.07 µM (inactive); in [3] it was 1.47 µM (inactive); in test [4], 5.2 µM (inactive); in [5], 2.87 µM (inactive); in test [6] it was 1.67 µM (inactive). Further, the GI50 was 4.33 µM (inactive) in test [7]; 5.96 µM (inactive) in [8]; 3.13 µM (inactive) in test [9]; 2.83 µM (inactive) in test [10]; 2.74 µM (inactive) in [20]; 7.35 µM (inactive) in test [11]. Further, the GI50 was 2.24 µM (inactive) in test [12]; 3.56 µM (inactive) in test [13]; 2.51 µM (inactive) in test [14]; 1.28 µM (inactive) in test [16]; 2.7 µM (inactive) in test [17]; 5 µM (inactive) in test [18]. The GI50 in test [19] was 5.01 µM (inactive).

As for `COc1cc(Cc2nccc3cc(OC)c(OC)cc23)c(C(C)=O)cc1OC`, the GI50 in test [1] is 205 µM (inactive); in test [3], 59.7 µM (inactive); in [4] it was 150 µM (inactive); in test [5], 160 µM (inactive); in test [6] it was 23.6 µM (inactive); in [7], 144 µM (inactive). The GI50 is 78.5 µM (inactive) in test [8]; 61 µM (inactive) in test [9]; 34.5 µM (inactive) in test [20]; 6.71 µM (inactive) in test [11]; 189 µM (inactive) in test [12]; 226 µM (inactive) in test [13]. Further, the GI50 in test [14] was 57.4 µM (inactive); in test [15], 3.09 µM (inactive); in [16], > 750 µM (inactive); in test [18], 139 µM (inactive).
